“Also recorded” adds a separate entry of the source.

One data set concerns Ramos-RR1. Kind of data set: DNA fragmentation (PI) apoptosis assay, Ramos-RR1. How it is done:
(§1) Percentage of apoptotic cells was determined by evaluation of propidium iodide (PI) stained preparations of cells using an EpicXL flow-cytometer. Cellular debris was excluded from analysis by raising the forward scatter threshold, and DNA content of the intact nuclei was recorded on a logarithmic scale (Nicoletti, I. et al., J. Immunol. Methods, 139:271-9 (1991)). Percent apoptosis is represented as percentage of hypodiploid cells accumulated at sub-G0 phase of cell cycle.
(§2) Cells were left either untreated or pre-treated with DHMEQ (36), bortezomib (Goy, A. et al., Clin. Lymphoma, 4:230-7 (2004)) and PD098059 (Alessi, D. et al., J. Biol. Chem., 270:27489-94 (1995)). Escalating concentrations of various drugs were then added and the percentage of apoptosis was measured.

The next data set concerns Daudi-RR1. Kind of data set: DNA fragmentation (PI) apoptosis assay, Daudi-RR1. The protocol: as §1, §2
A further data set has as its system NF-κB and AP-1 DBA. Kind of data set: EMSA in RR clones. Format: cell-based, human. How it is done: FIG. 8. […] A. Total cell lysates (40 μg) were subjected to western blot analysis using phospho-specific Abs for various components of the NF-κB and ERK1/2 pathways. B. The kinase activity of the IKK complex using IκB-α peptide (aa 1-50 including S^32/36) and ERK1/2 using MAPK kinase substrates 4 (aa 172-192) using immune-complex kinase assay. C. […] 10 μg of nuclear lysates were subjected to EMSA (n=2) (19, 20).
The DBAs were evaluated using biotin-labeled oligonucleotide AP-1 (5′-[…]-3′) (Lee, W et al., Cell, 49:741-52 (1987)) and NF-κB (5′-[…] […]-3′) probes (Harada, H. et al., Mol. Cell Biol., 14:1500-9 (1994)) using EMSA kit (Panomics, Inc., Redwood City, Calif.) according to manufacturer's instructions. 10 μg of nuclear extracts were subjected to […] 5% PAGE and developed (Jazirehi, A. et al., Cancer Research, 64:7117-26 (2004); Jazirehi, A. et al., Cancer Research, 65:264-76 (2005)).
Next, alterations in the DBA of NF-κB and AP-1 in the clones were examined.
Background: A gel shift assay detects complexes by their altered migration in electrophoresis.

Data set [1] deals with 2F7, Ramos and Daudi wild type and RR clones. Kind of data set: TRAIL-mediated apoptosis in B-NHL cell lines and RR clones (DNA fragmentation). The format is cell-based, human. The following applies: inhibitor pretreatment 2 h, then TRAIL 18 h; rituximab-sensitive and -resistant cells. The text has this:
Patients with B-NHL respond initially to conventional chemotherapy and/or to immunotherapy with rituximab (alone or in combination with chemotherapy). However, patients develop resistance to these modalities and novel approaches are needed. TRAIL is a cytotoxic molecule that exerts selective anti-tumor cytotoxic activity with minimal toxicity to normal tissues. Further, TRAIL or agonist monoclonal antibody (mAb) to TRAIL receptors, DR4 and DR5, are currently being tested clinically. The present study investigated the sensitivity of B-NHL cell lines to TRAIL-mediated apoptosis using the AIDS-related NHL (ARL) B-cell line, 2F7, and the B-NHL cell lines, Ramos and Daudi. Also, to recapitulate various aspects of acquired rituximab-resistance, we have generated rituximab-resistant (RR) clones from the parental wild type (wt) cells. […] We then examined means to reverse […] resistance. We and others have reported that inhibition of NFκB activity can sensitize TRAIL-resistant tumor cells to TRAIL-induced apoptosis. […] Both the rituximab-sensitive and rituximab-resistant tumor cells were sensitized by these inhibitors, though higher concentrations were required for sensitization of the RR clones. […] Based on the findings, patients with resistant B-NHL can be treated with combination of TRAIL/anti-DR4 or DR5 mAb and NFκB inhibitors. Alternatively, these patients can be treated with agents that up-regulate TRAIL expression on host effectors (e.g., T cells, NK cells) in combination with NFκB inhibitors.

In a further data set the test system is 2F7RR1 clone. Kind of data set: Chemotherapeutic drug-induced apoptosis in 2F7RR1. Format: cell-based. The text has this:
(§3) Accordingly, we examined whether inhibition of Bcl-2 in 2F7RR1 can reverse chemoresistance. Since Bcl-2 is under the transcriptional regulation of NFκB, we examined the effect of the NF-κB inhibitors Bortezomib and DHMEQ (Kikuchi, et al., Cancer Research, 63:107 (2003)).
(§4) The mechanism by which B-NHL patients resist treatment is not known. […] We examined the effect of various chemical inhibitors of this signaling pathway on chemosensitization.

Data set [2] deals with p38MAPK/NF-κB/YY1/STAT3 signaling pathways, Bcl-2. Kind of data set: Molecular analysis of signaling in 2F7RR1. Format: cell-based. The following applies: 2F7-RR1.
Excerpt: as §3, §4

The test system of the next data set is RR clones. Kind of data set: DNA fragmentation apoptosis assay, RR clones (pooled statements). The format is cell-based, human. The note with it: drugs e.g. Paclitaxel, Vincristine, VP-16, CDDP, Adriamycin. The protocol:
Thus, we examined if such sensitizing agents can reverse the resistance in the RR clones.
as §1, §2

A further data set concerns Ramos and Daudi. The following applies: ERK1/2 pathway inhibitors; cited from earlier work.
Data set [3] relates to PI3K/Akt signaling pathway in Ramos. Kind of data set: Western blot of phosphorylated and unphosphorylated Akt / NF-κB pathway proteins in Ramos. The following applies: rituximab 138 nM or (Fab′)2, 20 h. Format: cell-based, human. Background: Immunoblotting shows a protein as a band on a membrane.
Description: After stimulation, cells (2×10^6 cells) were collected and resuspended with lysis buffer (20 mM Tris-HCl (pH 8.0), 2 mM EDTA, 3% NP-40, 100 mM NaCt, 50 mM NaF, 1 uM PMSF, 1 uM VO4, 5 ug/ml aprotinin, 5 ug/ml leupeptin). After 30 min of incubation on ice, samples were centrifuged at 10,000×g, for 10 min at 4° C. to remove cellular debris. […] The membranes were blocked for 30 min with 5% non-fat dry milk diluted in 0.05% Tween-20 Tris-buffered saline at room temperature and incubated overnight with the primary antibodies. After incubation with the primary antibody against Akt (1:300), Bad, PDK1, (1:500), phospho-specific antibodies against phospho-Akt (Ser 473, Thr 308) (1:300), phospho-PDK1 and phospho-Bad (Serl 36) (both 1:300) for overnight, the membranes were washed and incubated with HRP-coupled secondary antibodies (Cell Signaling, MA, USA). Immunoreactive bands were detected using an enhanced chemiluminiscence system (Amersham Pharmacia Biotech, UK).
Another data set relates to Ramos cells. Kind of data set: PI flow cytometry apoptosis, chemosensitization of Ramos. The format is cell-based, human. The note with it: pretreatment then CDDP 15 μg/ml 24 h. (A flow cytometer gives signals particle by particle.)

Description for Ramos cells: The cells were then washed and fresh medium was added and seeded into 12 well plates (Costar, Cambridge, Mass.). Indicated concentrations of drugs (CDDP, ADR) were then added, and the cells were incubated for another 24 h for maximal cytotoxicity. At the end of the incubation period, the cells were harvested and subjected to propidium iodide (PI) (Molecular Probes, Leiden, Netherlands) staining according to the specifications of the PI staining kit (Roche Diagnostics Corporation, Indianapolis, Ind.) and evaluated by flow cytometric analysis. LY294002 was dissolved in DMSO (Sigma-Aldrich) and added up to 50 uM.
DNA fragmentation was detected by flow cytometric analysis after propidium iodide staining (Alas, S. et al., Cancer Res., 61:5137-44 (2001)). Cells with fragmented DNA were considered as apoptotic. […] Fluorescence was measured on a FACScan flow cytometer (BD Immunocytometry Systems) within 1 h. […] Cellular debris were excluded from analysis by raising the forward scatter threshold, and the DNA content of the intact nuclei was recorded on a logarithmic scale. […]
Ramos B-NHL cells were cultured in 1 ml of Opti-MEM medium without antibiotics and FBS. […] To determine Akt siRNA-induced sensitization to CDDP-induced apoptosis, following transfection the cells were treated with CDDP for 24 h, then fixed and permeabilized for PI staining, and analyzed by flow cytometry as described above.

As for `O=C(NC1=CC(=O)[C@H]2O[C@H]2[C@H]1O)c1ccccc1O` [DHMEQ, dehydroxymethylepoxyquinomicin], the “enhanced cytotoxicity of drugs by inhibitor” value is reported as 2.3-5.1 folds in the data set on Ramos-RR1 and 1.4-3.3 folds in the data set on Daudi-RR1. The “apoptosis, DHMEQ alone” value with Ramos-RR1 (Ramos-RR1, DHMEQ 20 μg/ml) was 10.1±2.1%; in the data set on Daudi-RR1 (Daudi-RR1, DHMEQ 20 μg/ml), 4.9±1.6%. Besides, the “NF-κB and AP-1 DBA (EMSA)” value in the data set with NF-κB and AP-1 DBA is “preferentially reduced”. The “sensitization to TRAIL-induced apoptosis” value in data set [1] is “significant augmentation of apoptosis and synergy was achieved”. In addition, the “chemosensitization to drug-induced apoptosis (taxol, vincristine, ADR, CDDP, VP16)” value in the data set on 2F7RR1 clone is given as “reversal of resistance; also recorded: significantly sensitized”. The “effect on NF-kB, YY1 and Bcl-2 expression” value in [2] was “inhibition of NF-kB, YY1 and downregulated Bcl-2 expression”. Further, the “sensitization of RR clones to various chemotherapeutic drugs” value with RR clones is reported as “sensitized”.
For `COc1cccc(-c2cc(=O)c3ccccc3o2)c1N` [PD098059, [2-(2′-amino-3′-methoxyphenyl)-oxanaphthalen-4-one]], the results for the “enhanced cytotoxicity of drugs by inhibitor” value in the data set on Ramos-RR1 and in the data set with Daudi-RR1 were 1.8-3.1 folds and 1.5-2.7 folds, respectively. Also, the “NF-κB and AP-1 DBA (EMSA)” value in the data set on NF-κB and AP-1 DBA is “preferentially reduced”. Moreover, the “sensitization of RR clones to various chemotherapeutic drugs” value with RR clones is listed as “sensitized”. Moreover, the “sensitization to drug-induced apoptosis” value with Ramos and Daudi is listed as “also sensitize the cells”.
Regarding “Rituximab (Fab′)2: Fc-devoid Rituximab (Fab′)2”, the “effect on p-Akt (western)” value in data set [3] was “also inhibited p-Akt like rituximab”. Also, in the data set with Ramos cells, the “sensitization to CDDP-induced apoptosis” value is listed as “sensitize the cells significantly”.

The values are drawn from US20090203050A1 (The Regents of the University of California, priority 2005, published 2009).
